This passage reports IC50 results from ChEMBL document CHEMBL1151044, “5,7-Diphenyl-3-ureidohexahydroazepin-2-ones as Cholecystokinin-B receptor ligands” (Bioorg Med Chem Lett, 1994).

The term IC50 denotes the concentration at which inhibition is half-maximal.

Some results are limits rather than exact numbers.

The target of the experiment is T1, Cholecystokinin receptor type A (Cavia porcellus, UniProt Q63931).
T1 sequence (Q63931 whole entry): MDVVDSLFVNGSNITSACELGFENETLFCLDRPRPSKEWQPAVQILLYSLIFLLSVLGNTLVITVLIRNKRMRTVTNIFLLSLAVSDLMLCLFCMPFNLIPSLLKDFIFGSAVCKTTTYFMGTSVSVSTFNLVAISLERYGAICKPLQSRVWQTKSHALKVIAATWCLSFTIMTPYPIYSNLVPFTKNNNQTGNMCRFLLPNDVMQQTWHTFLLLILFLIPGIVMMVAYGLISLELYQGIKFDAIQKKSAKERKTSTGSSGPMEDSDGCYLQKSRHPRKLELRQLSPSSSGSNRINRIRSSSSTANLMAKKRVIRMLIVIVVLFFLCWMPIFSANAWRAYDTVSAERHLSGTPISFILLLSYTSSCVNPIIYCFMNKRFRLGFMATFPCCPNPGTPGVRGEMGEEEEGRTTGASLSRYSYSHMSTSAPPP
Nature of the experiment: Inhibitory activity against cholecystokinin-A (CCK-A) receptor in pancreas of guinea pig.
Turning to `Cc1ccc([C@H]2C[C@@H](c3ccccc3)C[C@@H](NC(=O)Nc3cccc(C)c3)C(=O)N2CC(=O)NC(C)(C)C)cc1`, the IC50 came to 970 nM.

Take `Cc1cccc(NC(=O)N[C@H]2C[C@H](c3ccccc3)C[C@H](c3ccccc3)N(CC(=O)NC(C)(C)C)C2=O)c1`: 10 nM corresponded to half-maximal inhibition (IC50).

`Cc1ccccc1[C@@H]1C[C@H](c2ccccc2)N(CC(=O)NC(C)(C)C)C(=O)[C@H](NC(=O)Nc2cccc(F)c2)C1` had an IC50 of 1.8 nM.

`Cc1ccc([C@@H]2C[C@H](c3ccccc3)N(CC(=O)NC(C)(C)C)C(=O)[C@H](NC(=O)Nc3cccc(C)c3)C2)cc1` returned an IC50 of 1.1 nM.

Compound `Cc1cccc(NC(=O)N[C@@H]2C[C@H](c3ccccc3C)C[C@H](c3ccccc3)N(CC(=O)NC(C)C)C2=O)c1` yielded an IC50 of 560 nM.

With `Cc1cccc(NC(=O)N[C@@H]2C[C@H](c3ccccc3C)C[C@H](c3ccccc3)N(CC(=O)NC(C(C)(C)C)C(C)(C)C)C2=O)c1`, the IC50 was greater than 10 nM.

As for `Cc1ccccc1[C@@H]1C[C@H](c2ccccc2)N(CC(=O)NC(C)(C)C)C(=O)[C@H](NC(=O)Nc2cccc([N+](=O)[O-])c2)C1`, the IC50 is greater than 10 nM.

Consider `Cc1cccc(NC(=O)N[C@@H]2C[C@H](c3ccccc3C)C[C@H](c3ccccc3)N(CC(=O)Nc3cccc(Cl)c3)C2=O)c1`, for which the IC50 was greater than 10 nM.

`Cc1cccc(NC(=O)N[C@@H]2C[C@H](c3cccc(C)c3)C[C@H](c3ccccc3)N(CC(=O)NC(C)(C)C)C2=O)c1` returned an IC50 of 1.3 nM.

Regarding `Cc1cccc(NC(=O)N[C@@H]2C[C@H](c3ccc(F)cc3)C[C@H](c3ccccc3)N(CC(=O)NC(C)(C)C)C2=O)c1`, the IC50 turned out to be 700 nM.

The compound `Cc1cccc(NC(=O)N[C@@H]2C[C@H](c3ccccc3C)C[C@H](c3ccccc3)N(CC(=O)NC(C)(C)C)C2=O)c1` (stereo in doubt; 10i) came in with an IC50 of 580 nM.

`CCc1ccccc1[C@@H]1C[C@H](c2ccccc2)N(CC(=O)NC(C)(C)C)C(=O)[C@H](NC(=O)Nc2cccc(C)c2)C1` yielded a half-maximal inhibitory concentration (IC50) of 810 nM.

Consider `Cc1cccc(NC(=O)N[C@@H]2C[C@H](c3ccccc3C)C[C@H](c3ccccc3)N(CC(=O)NC3(C)CCCCC3)C2=O)c1`, for which the IC50 was found to be 4.4 nM.

As to `COc1ccc(NC(=O)N[C@@H]2C[C@H](c3ccccc3C)C[C@H](c3ccccc3)N(CC(=O)NC(C)(C)C)C2=O)cc1`, the IC50 turned out to be 2.2 nM.

`CCc1cccc(NC(=O)N[C@@H]2C[C@H](c3ccccc3C)C[C@H](c3ccccc3)N(CC(=O)NC3(C)CCCCC3)C2=O)c1` yielded an IC50 greater than 10 nM.

Compound `Cc1ccccc1[C@@H]1C[C@H](c2ccccc2)N(CC(=O)NC(C)(C)C)C(=O)[C@H](NC(=O)Nc2ccc(Cl)cc2)C1` showed an IC50 greater than 10 nM.

Compound `Cc1cccc(NC(=O)N[C@@H]2C[C@H](c3ccccc3C)C[C@H](c3ccccc3)N(CC(=O)NC(C)(C)C)C2=O)c1` (stereo in doubt; (-)-10i) registered an IC50 of 930 nM.

`COc1ccccc1[C@@H]1C[C@H](c2ccccc2)N(CC(=O)NC(C)(C)C)C(=O)[C@H](NC(=O)Nc2cccc(C)c2)C1` came in with an IC50 of 750 nM.

For `Cc1cccc(NC(=O)N[C@@H]2C[C@H](c3ccccc3)C[C@H](c3ccc(F)cc3)N(CC(=O)NC(C)(C)C)C2=O)c1`, the IC50 was 2.8 nM.

For `Cc1cccc(NC(=O)N[C@@H]2C[C@H](c3ccccc3C)C[C@H](c3ccccc3)N(CC(=O)Nc3ccccc3C)C2=O)c1`, the IC50 stood at 1.1 nM.

The compound `Cc1cccc(NC(=O)N[C@@H]2C[C@H](c3ccccc3)C[C@H](c3cccc(C)c3)N(CC(=O)NC(C)(C)C)C2=O)c1` showed an IC50 of 1.6 nM.

Regarding `Cc1cccc(NC(=O)N[C@@H]2C[C@H](c3ccccc3)C[C@H](c3ccccc3)N(CC(=O)NC(C)(C)C)C2=O)c1`, the IC50 was found to be 823 nM.

As for `Cc1cccc(NC(=O)N[C@@H]2C[C@H](c3ccccc3C)C[C@H](c3ccccc3)N(CC(=O)Nc3ccccc3Cl)C2=O)c1`, the 50% inhibitory concentration (IC50) turned out to be 1.1 nM.

In turn, `Cc1cccc(NC(=O)N[C@@H]2C[C@H](c3ccccc3)C[C@H](c3cccc(F)c3)N(CC(=O)NC(C)(C)C)C2=O)c1` yielded an IC50 of 1 nM.

In turn, `Cc1cccc(NC(=O)N[C@@H]2C[C@H](c3ccccc3C)C[C@H](c3ccccc3)N(CC(=O)Nc3ccc(Cl)cc3)C2=O)c1` registered an IC50 greater than 10 nM.

Regarding `Cc1cccc(NC(=O)N[C@@H]2C[C@H](c3ccccc3C)C[C@H](c3ccccc3)N(CC(=O)NC(C)(C)C)C2=O)c1` (stereo in doubt; (+)-10i), the midpoint of inhibition, the IC50, lay at 610 nM.

On to `Cc1ccccc1[C@@H]1C[C@H](c2ccccc2)N(CC(=O)NC(C)(C)C)C(=O)[C@H](NC(=O)Nc2cccc(C(F)(F)F)c2)C1`, for which the IC50 was found to be 2500 nM.

`Cc1ccc(NC(=O)CN2C(=O)[C@H](NC(=O)Nc3cccc(C)c3)C[C@H](c3ccccc3C)C[C@@H]2c2ccccc2)cc1` returned an IC50 greater than 10 nM.
